# Results as given in patent US11459323B2, “Monocyclic β-lactam compound for treating bacterial infection” (MEDSHINE DISCOVERY INC., priority 2018, dated 2022).
# Like-named read-outs stand apart in the source and are kept apart here.
# Key:
# [1] = system: Pseudomonas aeruginosa W35; assay: MIC on clinically isolated bacteria; type: cell-based
# Outline: (§1)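 Values were obtained by CLSI-conformant microdilution against clinically isolated Gram-negative strains.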
# [2] = system: Acinetobacter baumannii C330; assay: MIC on clinically isolated bacteria; type: cell-based
# Outline: as §1
# [3] = system: Acinetobacter baumannii C181; assay: MIC on clinically isolated bacteria; type: cell-based
# Outline: as §1
# [4] = system: Acinetobacter baumannii C279; assay: MIC on clinically isolated bacteria; type: cell-based
# Outline: as §1
# [5] = system: Pseudomonas aeruginosa W6; assay: MIC on clinically isolated bacteria; type: cell-based
# Outline: as §1
# [6] = system: Acinetobacter baumannii C241; assay: MIC on clinically isolated bacteria; type: cell-based
# Outline: as §1
# [7] = system: Pseudomonas aeruginosa M1; assay: MIC on clinically isolated bacteria; type: cell-based
# Outline: as §1
# [8] = system: Pseudomonas aeruginosa C762; assay: MIC on clinically isolated bacteria; type: cell-based
# Outline: as §1
# [9] = system: Pseudomonas aeruginosa W23; assay: MIC on clinically isolated bacteria; type: cell-based
# Outline: as §1
# [10] = system: Acinetobacter baumannii C283; assay: MIC on clinically isolated bacteria; type: cell-based
# Outline: as §1
# [11] = system: Acinetobacter baumannii C281; assay: MIC on clinically isolated bacteria; type: cell-based
# Outline: as §1
# [12] = system: Acinetobacter baumannii ATCC 17978; assay: MIC on Acinetobacter baumannii strains; type: cell-based; conditions: ATCC17978
# Outline: (§2)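 A panel of twelve A. baumannii strains served for susceptibility testing. The method was micro-liquid dilution as required by CLSI, and values are MICs.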
# [13] = system: Acinetobacter baumannii ATCC-BAA-1790; assay: MIC on Acinetobacter baumannii strains; type: cell-based; conditions: ATCCBAA1790
# Outline: as §2
# [14] = system: Acinetobacter baumannii ATCC-BAA-1800; assay: MIC on Acinetobacter baumannii strains; type: cell-based; conditions: ATCCBAA1800
# Outline: as §2
# [15] = system: Acinetobacter baumannii ATCC-BAA-1795; assay: MIC on Acinetobacter baumannii strains; type: cell-based; conditions: ATCCBAA1795
# Outline: as §2
# [16] = system: Acinetobacter baumannii ATCC-BAA-1792; assay: MIC on Acinetobacter baumannii strains; type: cell-based; conditions: ATCCBAA1792
# Outline: as §2
# [17] = system: Acinetobacter baumannii ATCC-BAA-1791; assay: MIC on Acinetobacter baumannii strains; type: cell-based; conditions: ATCCBAA1791
# Outline: as §2
# [18] = system: Acinetobacter baumannii ATCC-BAA-1789; assay: MIC on Acinetobacter baumannii strains; type: cell-based; conditions: ATCCBAA1789
# Outline: as §2
# [19] = system: Acinetobacter baumannii ATCC 19606; assay: MIC on Acinetobacter baumannii strains; type: cell-based; conditions: ATCC19606
# Outline: as §2
# [20] = system: Acinetobacter baumannii ATCC-BAA-1794; assay: MIC on Acinetobacter baumannii strains; type: cell-based; conditions: ATCCBAA1794
# Outline: as §2
# [21] = system: Acinetobacter baumannii ATCC-BAA-1799; assay: MIC on Acinetobacter baumannii strains; type: cell-based; conditions: ATCCBAA1799
# Outline: as §2
# [22] = system: Acinetobacter baumannii ATCC-BAA-1605; assay: MIC on Acinetobacter baumannii strains; type: cell-based; conditions: ATCCBAA1605, ATCC-BAA-1605, read-out: MIC
# Outline: as §2
# [23] = system: Acinetobacter baumannii ATCC-BAA-1793; assay: MIC on Acinetobacter baumannii strains; type: cell-based; conditions: ATCCBAA1793
# Outline: as §2
# E. coli ATCC 25922 = assay: MIC by micro-liquid dilution method (CLSI); type: cell-based; conditions: Escherichia coli, ATCC25922
# [24] = system: Pseudomonas aeruginosa PA14; assay: Lungs of immunosuppressed mice infected with Pseudomonas aeruginosa (2), lung bacterial load; type: in vivo; conditions: 24 hours after infection, day, ip at 2 h, 4 h, 6 h, 8 h
# Description: Pseudomonas aeruginosa PA14. 60 mice were intraperitoneally injected with 150 mg/kg cyclophosphamide on day 1 and day 4 to give immunosuppressed mice. […] [table] The mice were injected with 50 μL of bacterial solution (2×10^3 CFU) through the airway. 2 hours after the infection, 4 mice in the model group was sacrificed by removing cervical vertebra. Two hours after infection, the drugs were administered by groups, and the mice were administered intraperitoneally once at 2 hours, 4 hours, 6 hours, and 8 hours, a total of 4 times. Mice of each group were sacrificed by removing cervical vertebra 24 hours after infection, lung and kidney tissues were taken aseptically and put into a sterilized tissue homogenate tube, weighed, and an appropriate amount of normal saline (NS) was added, the mixture was homogenized by a homogenizer for 1 min, the lung tissues of the model group were diluted 10^4, 10^5, 10^6 times, the lung tissues of each administration group were diluted 10, 100 times, the kidney tissues of the model group were diluted 10^2, 10^3, 10^4 times, and the lung tissues of each administration group were diluted 10 times, the obtained mixtures were coated on TSA plates using spiral coater, then incubated at 37° C. overnight, and the CFU was counted with a colony counter. Graphpad Prism mapping software was used to make scatter plots of lung tissue CFU. SPSS19.0 software was used to count CFU and average body weight, and analysis of variance was used to analyze differences between groups.
# [25] = Acinetobacter baumannii C330, read-out: Minimum Inhibitory Concentration (MIC)
# [26] = Acinetobacter baumannii C181, read-out: Minimum Inhibitory Concentration (MIC)
# [27] = Acinetobacter baumannii C279, read-out: Minimum Inhibitory Concentration (MIC)
# [28] = Acinetobacter baumannii C241, read-out: Minimum Inhibitory Concentration (MIC)
# [29] = Acinetobacter baumannii C283, read-out: Minimum Inhibitory Concentration (MIC)
# [30] = Acinetobacter baumannii C281, read-out: Minimum Inhibitory Concentration (MIC)
SMILES,MIC ([1]; read-out: MIC) [µg/mL],"MIC [2, 25] [µg/mL]","MIC [3, 26] [µg/mL]","MIC [4, 27] [µg/mL]",MIC ([5]; read-out: MIC) [µg/mL],"MIC [6, 28] [µg/mL]",MIC ([7]; read-out: MIC) [µg/mL],MIC ([8]; read-out: MIC) [µg/mL],MIC ([9]; read-out: MIC) [µg/mL],"MIC [10, 29] [µg/mL]","MIC [11, 30] [µg/mL]",LOG10-of bacterial load ([24]; total dosage 20 mg/kg),LOG10-of bacterial load ([24]; total dosage 60 mg/kg),other results
CC1(C)[C@H](NC(=O)/C(=N\O[C@@H](COc2ccc3c(c2)CN(C(=N)N(CCN)CCN)C3)C(=O)O)c2csc(N)n2)C(=O)N1OS(=O)(=O)O [Compound 45],2,16,> 16,16,> 16,> 16,4,> 16,4,16,16,–,–,–
"C[C@@H](O)[C@H]1C(=O)N2C(C(=O)O)=C(S[C@@H]3CN[C@H](C(=O)N(C)C)C3)[C@H](C)[C@H]12 [Meropenem, reference compound]",16,64,128,64,32,64,4,32,16,64,64,–,–,MIC [12]: 0.5 µg/mL; MIC [13]: 128 µg/mL; MIC [14]: > 128 µg/mL; MIC [15]: 4 µg/mL; MIC [16]: 128 µg/mL; MIC [17]: 64 µg/mL; MIC [18]: 64 µg/mL; MIC [19]: 2 µg/mL; MIC [20]: > 128 µg/mL; MIC [21]: 128 µg/mL; MIC [22]: 64 µg/mL; MIC [23]: > 128 µg/mL; MIC (E. coli ATCC 25922): ≤ 0.125 µg/mL
CC1(C)[C@H](NC(=O)/C(=N\O[C@@H](COc2ccc3c(c2)CN(C(=N)NCCCCN)C3)C(=O)O)c2csc(N)n2)C(=O)N1OS(=O)(=O)O [Compound 36],0.125,2,2,2,0.5,2,0.5,8,0.25,2,2,–,–,–
CC1(C)[C@H](NC(=O)/C(=N\O[C@@H](COc2ccc3c(c2)CN(/C(=N\[C@@H]2CCCNC2)N[C@@H]2CCCNC2)C3)C(=O)O)c2csc(N)n2)C(=O)N1OS(=O)(=O)O [Compound 46],0.25,4,4,4,1,4,1,8,0.25,4,4,3.13 ± 2.45,0.34 ± 0.85,–
CC1(C)[C@H](NC(=O)/C(=N\O[C@@H](COc2ccc3c(c2)CN(C(=N)N[C@@H]2CCCNC2)C3)C(=O)O)c2csc(N)n2)C(=O)N1OS(=O)(=O)O [Compound 41],0.5,2,4,2,4,4,1,8,0.5,2,2,4.12 ± 1.50,3.65 ± 2.15,–
"CN(C)c1cc(NC(=O)CNC(C)(C)C)c(O)c2c1C[C@H]1C[C@H]3[C@H](N(C)C)C(O)=C(C(N)=O)C(=O)[C@@]3(O)C(O)=C1C2=O [Tigecycline, reference compound]",–,–,–,–,–,–,–,–,–,–,–,–,–,"MIC [1]: 8 µg/mL; MIC ([2]; Acinetobacter baumannii, C330, read-out: Minimum Inhibitory Concentration (MIC)): 1 µg/mL; MIC ([3]; Acinetobacter baumannii, C181, read-out: Minimum Inhibitory Concentration (MIC)): 1 µg/mL; MIC ([4]; Acinetobacter baumannii, C279, read-out: Minimum Inhibitory Concentration (MIC)): 1 µg/mL; MIC [5]: 16 µg/mL; MIC ([6]; Acinetobacter baumannii, C241, read-out: Minimum Inhibitory Concentration (MIC)): 2 µg/mL; MIC [7]: 16 µg/mL; MIC [8]: > 16 µg/mL; MIC [9]: 16 µg/mL; MIC ([10]; Acinetobacter baumannii, C283, read-out: Minimum Inhibitory Concentration (MIC)): 1 µg/mL; MIC ([11]; Acinetobacter baumannii, C281, read-out: Minimum Inhibitory Concentration (MIC)): 1 µg/mL"
CC1(C)[C@H](NC(=O)/C(=N\O[C@@H](COc2ccc3c(c2)CN(C(=N)NOCCN)C3)C(=O)O)c2csc(N)n2)C(=O)N1OS(=O)(=O)O [Compound 43],1,8,> 16,8,8,> 16,1,16,1,8,8,–,–,–
CC1(C)[C@H](NC(=O)/C(=N\O[C@@H](COc2ccc3c(c2)CN(C(=N)NCCN)C3)C(=O)O)c2csc(N)n2)C(=O)N1OS(=O)(=O)O [Compound 44],0.25,1,2,1,4,2,0.5,4,0.5,1,1,6.80 ± 0.94,2.40 ± 1.99,–
